According to ChEMBL document CHEMBL5113538, “Discovery of Novel Allosteric EGFR L858R Inhibitors for the Treatment of Non-Small-Cell Lung Cancer as a Single Agent or in Combination with Osimertinib” (J Med Chem, 2022):

Experiments:
[1] = tested on: BaF3; assay: Cytotoxicity against mouse BaF3 cells expressing EGFR L858R/T790M/C797S mutant assessed as reduction in cell viability measured after 72 hrs by cell titre glo luminescence assay; assay type: functional, cell-based; settings: for IC50: BaF3, 72 h; for IC90: BaF3, time 72 hrs
[2] = tested on: BaF3; assay: Cytotoxicity against mouse BaF3 cells harboring EGFR L858R/C797S mutant assessed as reduction in cell viability measured after 72 hrs by cell titre glo luminescence assay; assay type: functional, cell-based; settings: for IC50: BaF3, 72 h; for IC90: BaF3, time 72 hrs
[3] = target: Epidermal growth factor receptor (Homo sapiens, UniProt P00533, C797S/L858R)
[4] = target: Epidermal growth factor receptor (Homo sapiens, UniProt P00533, C797S/L858R/T790M)
[5] = Intrinsic clearance in human liver hepatocytes measured per 10^6 cells incubated upto 2 hrs by LC-MS/MS analysis; assay type: ADME, cell-based, Hepatocyte; settings: read-out: CLH
[6] = Intrinsic clearance in mouse liver hepatocytes measured per 10^6 cells incubated upto 2 hrs by LC-MS/MS analysis; assay type: ADME, cell-based, Hepatocyte; settings: read-out: CLH
[7] = tested on: BaF3; assay: Antitumor activity against mouse BaF3 cells harboring EGFR L858R/C797S mutant allografted in Balb/c nude mouse assessed as in tumor growth inhibition at 30 mg/kg administered twice daily measured on day 20; assay type: functional; settings: BaF3, 480 h, time 20 day, read-out: TGI

Sequence of Epidermal growth factor receptor (Homo sapiens, UniProt P00533, C797S/L858R) (P00533 25-1210 C797S/L858R limits assumed): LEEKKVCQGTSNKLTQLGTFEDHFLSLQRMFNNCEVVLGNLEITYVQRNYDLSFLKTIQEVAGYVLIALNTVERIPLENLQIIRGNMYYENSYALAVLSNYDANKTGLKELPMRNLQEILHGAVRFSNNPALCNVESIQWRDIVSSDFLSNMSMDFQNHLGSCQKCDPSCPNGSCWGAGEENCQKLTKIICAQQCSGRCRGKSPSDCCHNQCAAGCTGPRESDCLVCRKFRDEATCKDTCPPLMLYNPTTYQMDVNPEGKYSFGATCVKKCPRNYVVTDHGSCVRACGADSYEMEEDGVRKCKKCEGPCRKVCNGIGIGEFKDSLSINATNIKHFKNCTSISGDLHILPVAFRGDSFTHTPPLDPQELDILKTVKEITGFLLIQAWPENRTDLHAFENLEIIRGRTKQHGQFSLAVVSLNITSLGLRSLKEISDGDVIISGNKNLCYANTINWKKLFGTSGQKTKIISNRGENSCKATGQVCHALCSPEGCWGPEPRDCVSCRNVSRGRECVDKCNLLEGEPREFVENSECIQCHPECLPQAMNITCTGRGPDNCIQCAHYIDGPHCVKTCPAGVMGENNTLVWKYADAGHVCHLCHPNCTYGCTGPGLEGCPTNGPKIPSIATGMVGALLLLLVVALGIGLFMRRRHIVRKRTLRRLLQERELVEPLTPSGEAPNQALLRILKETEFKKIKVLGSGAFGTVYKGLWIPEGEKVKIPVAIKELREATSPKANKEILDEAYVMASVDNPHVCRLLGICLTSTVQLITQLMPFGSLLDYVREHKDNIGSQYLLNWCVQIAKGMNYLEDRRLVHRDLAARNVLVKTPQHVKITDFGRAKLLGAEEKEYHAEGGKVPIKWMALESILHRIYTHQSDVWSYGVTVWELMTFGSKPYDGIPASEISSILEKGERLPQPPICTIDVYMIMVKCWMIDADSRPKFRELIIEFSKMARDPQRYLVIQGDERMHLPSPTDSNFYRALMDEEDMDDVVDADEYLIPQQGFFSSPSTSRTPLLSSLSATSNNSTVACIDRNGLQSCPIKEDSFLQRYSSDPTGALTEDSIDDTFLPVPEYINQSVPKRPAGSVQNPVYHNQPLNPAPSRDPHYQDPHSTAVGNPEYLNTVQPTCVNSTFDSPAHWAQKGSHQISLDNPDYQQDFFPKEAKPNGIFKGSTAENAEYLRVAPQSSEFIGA
Sequence of Epidermal growth factor receptor (Homo sapiens, UniProt P00533, C797S/L858R/T790M) (P00533 25-1210 T790M/C797S/L858R limits assumed): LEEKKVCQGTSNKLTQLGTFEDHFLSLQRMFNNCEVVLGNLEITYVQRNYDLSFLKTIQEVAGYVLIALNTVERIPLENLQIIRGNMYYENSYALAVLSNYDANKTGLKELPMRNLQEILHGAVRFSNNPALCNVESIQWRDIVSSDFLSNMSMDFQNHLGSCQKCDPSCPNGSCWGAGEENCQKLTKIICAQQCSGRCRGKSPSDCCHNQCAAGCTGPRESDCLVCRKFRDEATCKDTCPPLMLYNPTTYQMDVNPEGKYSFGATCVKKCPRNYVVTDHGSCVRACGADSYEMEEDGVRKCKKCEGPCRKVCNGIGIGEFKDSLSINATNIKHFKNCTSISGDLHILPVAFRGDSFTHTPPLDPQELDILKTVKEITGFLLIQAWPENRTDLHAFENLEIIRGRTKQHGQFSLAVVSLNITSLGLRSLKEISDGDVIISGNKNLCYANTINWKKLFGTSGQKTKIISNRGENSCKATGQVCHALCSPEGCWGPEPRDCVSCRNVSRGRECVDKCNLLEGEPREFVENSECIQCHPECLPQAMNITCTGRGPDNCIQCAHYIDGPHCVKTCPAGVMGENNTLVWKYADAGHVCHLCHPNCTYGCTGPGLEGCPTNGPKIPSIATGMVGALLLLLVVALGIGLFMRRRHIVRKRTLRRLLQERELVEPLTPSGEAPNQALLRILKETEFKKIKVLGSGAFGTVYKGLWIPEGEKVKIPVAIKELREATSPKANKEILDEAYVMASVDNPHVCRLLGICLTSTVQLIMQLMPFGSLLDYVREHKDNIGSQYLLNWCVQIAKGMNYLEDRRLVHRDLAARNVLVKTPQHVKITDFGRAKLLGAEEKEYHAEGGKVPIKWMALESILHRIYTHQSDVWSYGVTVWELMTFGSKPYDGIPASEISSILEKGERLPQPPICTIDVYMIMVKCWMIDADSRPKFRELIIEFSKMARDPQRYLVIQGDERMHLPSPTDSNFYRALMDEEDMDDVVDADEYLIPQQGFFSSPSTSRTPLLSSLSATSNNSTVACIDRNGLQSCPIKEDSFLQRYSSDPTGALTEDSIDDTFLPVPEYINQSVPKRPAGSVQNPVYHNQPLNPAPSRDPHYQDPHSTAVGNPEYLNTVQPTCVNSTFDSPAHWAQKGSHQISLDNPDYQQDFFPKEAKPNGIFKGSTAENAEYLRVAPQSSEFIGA

Row | IC50 [3] [nM] | IC50 [4] [nM] | hepatocyte CLint [5] [µL/min/1e6 cells] | hepatocyte CLint [6] [µL/min/1e6 cells] | SMILES | IC50 [1] [nM] | IC90 [1] [nM] | IC50 [2] [nM] | IC90 [2] [nM] | inhibition in vivo at 30 mg/kg [7] [%]
1 | 297 | 7 | – | – | O=C(Nc1nccs1)C(c1ncn2c1CCC2)N1Cc2ccc(C#Cc3ccc(CN4CCC(O)CC4)cc3)cc2C1=O (configuration not stated) | 10 | 24 | 1250 | 3250 | –
2 | 33 | 5 | 1.6 | 3.6 | O=C(Nc1nccs1)C(c1ncn2c1CCC2)N1Cc2c(F)cc(C#Cc3ccc(CN4CCC(O)CC4)cc3)cc2C1=O (configuration not stated) | 5 | 13 | 72 | 285 | –
3 | 13 | 4 | 3.1 | 33 | O=C(Nc1nccs1)C(c1ncn2c1CCC2)N1Cc2c(cc(C#Cc3ccc(CN4CCC(CO)CC4)cc3)cc2C(F)F)C1=O (configuration not stated) | 1 | 3 | 4 | 12 | –
4 | 12 | 4 | 5 | 19 | CC1(C)CCc2c(C(C(=O)Nc3nccs3)N3Cc4c(cc(C#Cc5ccc(CN6CCC(CO)CC6)cc5)cc4C(F)F)C3=O)ncn21 (configuration not stated) | 1 | 3 | 1 | 2 | –
5 | 12 | – | – | – | O=C(Nc1nccs1)C(c1ncn2c1CCC2)N1Cc2c(F)cc(C#Cc3ccc(CN4CCC(CO)CC4)cc3)cc2C1=O (configuration not stated) | 1 | 2 | 16 | 47 | –
6 | 54 | 7 | – | – | O=C(Nc1nccs1)C(c1ncn2c1CCC2)N1Cc2c(F)cc(C#Cc3ccc(CN4CCCCC4)cc3)cc2C1=O (configuration not stated) | 10 | 24 | 207 | 711 | –
7 | 26 | 3 | 3.3 | 50 | O=C(Nc1nccs1)C(c1ncn2c1CCC2)N1Cc2c(cc(C#Cc3ccc(CN4CCC(CO)CC4)cc3)cc2C(F)(F)F)C1=O (configuration not stated) | 0.5 | 1 | 2 | 5 | –
8 | 342 | 16 | 6.5 | 6 | O=C(Nc1nccs1)C(c1ncn2c1CCC2)N1Cc2ccc(C#Cc3ccc(CN4CCCCC4)cc3)cc2C1=O (configuration not stated) | 17 | 42 | 1300 | 3100 | –
9 | 106 | 6 | – | – | O=C(Nc1nccs1)C(c1ncn2c1CCC2)n1cc2c(F)cc(C#Cc3ccc(CN4CCC(O)CC4)cc3)cc2n1 (configuration not stated) | 9 | – | 800 | – | –
10 | > 10000 | 460 | – | – | O=C(Nc1nccs1)C(c1ncn2c1CCC2)N1Cc2ccc(C#Cc3cccnc3)cc2C1=O (configuration not stated) | 1200 | 3000 | > 10000 | > 10000 | –

The next lines start with the compound.

Row | SMILES | IC50 [3] [nM] | IC50 [4] [nM] | hepatocyte CLint [5] [µL/min/1e6 cells] | hepatocyte CLint [6] [µL/min/1e6 cells] | IC50 [1] [nM] | IC90 [1] [nM] | IC50 [2] [nM] | IC90 [2] [nM] | inhibition in vivo at 30 mg/kg [7] [%]
11 | CCN1CCN(c2ccc(-c3cc(Cl)c4cn(C(C(=O)Nc5nccs5)c5ncn6c5C[C@@H](F)C6)nc4c3Cl)cc2)CC1 (mixture of isomers) | 15 | – | – | – | 8 | 19 | 15 | 42 | –
12 | CCN1CCN(c2ccc(-c3cc(Cl)c4cn(C(C(=O)Nc5nccs5)c5ncn6c5CCC6)nc4c3Cl)cc2)CC1 (configuration not stated) | 22 | – | – | – | 13 | 33 | 26 | 70 | –
13 | O=C(Nc1nccs1)C(c1ncn2c1C[C@@H](F)C2)n1cc2c(Cl)cc(-c3ccc(N4CCOCC4)cc3)c(Cl)c2n1 (mixture of isomers) | 17 | 6 | – | – | – | – | 12 | – | –
14 | O=C(Nc1nccs1)C(c1ncn2c1CCC2)N1Cc2c(F)cc(C#Cc3cccnc3)cc2C1=O (configuration not stated) | 129 | 7 | – | – | 12 | 30 | 1800 | 7000 | –
15 | O=C(Nc1nccs1)C(c1ncn2c1CCC2)N1Cc2ccc(C#Cc3ccccc3)cc2C1=O (configuration not stated) | – | – | – | – | – | – | > 10000 | > 10000 | –
16 | Cc1[nH]nc(C(C(=O)Nc2nccs2)N2Cc3ccccc3C2=O)c1C (configuration not stated) | > 10000 | > 10000 | – | – | – | – | – | – | –
17 | O=C(Nc1nccs1)C(c1cc(F)ccc1O)N1Cc2ccc(-c3ccc(N4CCNCC4)cc3)cc2C1=O (configuration not stated) | – | – | – | – | 30 | 40 | 1550 | 7280 | –
18 | O=C(Nc1nccs1)C(c1cc(F)ccc1O)N1Cc2ccccc2C1=O (configuration not stated) | – | – | 67 | 27 | – | – | – | – | –
19 | O=C(Nc1nccs1)C(c1ncn2c1CCC2)N1Cc2c(Cl)cccc2C1=O (configuration not stated) | 183 | 4 | 7 | 68 | – | – | – | – | –
20 | O=C(Nc1nccs1)C(c1ncn2c1C[C@@H](F)C2)n1cc2c(Cl)cc(-c3ccc(N4CCN(C5CC5)CC4)cc3)c(Cl)c2n1 (mixture of isomers) | 30 | 17 | – | – | 23 | 55 | 36 | 104 | –
21 | Cc1c(-c2ccc(N3CCOCC3)cc2)cc(C(F)F)c2cn(C(C(=O)Nc3nccs3)c3ncn4c3C[C@@H](F)C4)nc12 (mixture of isomers) | – | 7 | – | – | – | – | 4 | – | –
22 | O=C(Nc1nccs1)C(c1ncn2c1CCC2)N1Cc2ccccc2C1=O (configuration not stated) | 1700 | 16 | – | – | – | – | – | – | –
23 | O=C(Nc1nccs1)C(c1cc[nH]n1)N1Cc2ccccc2C1=O (configuration not stated) | > 10000 | 938 | – | – | – | – | – | – | –
24 | CCN1CCN(c2ccc(-c3cc(F)c4cn(C(C(=O)Nc5nccs5)c5ncn6c5CCC6)nc4c3)cc2)CC1 (configuration not stated) | 91 | 7 | – | – | 13 | 30 | 650 | 2600 | –
25 | O=C(Nc1nccs1)C(c1ncn2c1CCC2)n1cc2c(Cl)cc(-c3ccc(N4CCOCC4)cc3)c(Cl)c2n1 (configuration not stated) | 33 | – | – | – | 31 | 74 | 46 | 126 | –
26 | Nc1ccc(C#Cc2cc(F)c3c(c2)C(=O)N(C(C(=O)Nc2nccs2)c2ncn4c2CCC4)C3)cn1 (configuration not stated) | 1100 | 116 | – | – | 200 | 490 | > 10000 | > 10000 | –
27 | O=C(Nc1nccs1)C(c1n[nH]c2c1CCC2)N1Cc2ccccc2C1=O (configuration not stated) | 3200 | 23 | – | – | – | – | – | – | –
28 | Cc1c(-c2ccc(N3CCOCC3)cc2)cc(C(F)F)c2cn(C(C(=O)Nc3nccs3)c3ncn4c3CCC43CC3)nc12 (configuration not stated) | – | 10 | – | – | – | – | 3 | – | 26
29 | Cc1c(C#Cc2ccc(CN3CCC(CO)CC3)cc2)cc(C(F)F)c2cn(C(C(=O)Nc3nccs3)c3ncn4c3CCC4)nc12 (configuration not stated) | – | 3 | – | – | 1 | – | 2 | – | –
